Data set [1] can be described thus: ATP sequestration: ATP hydrolysis by alkaline phosphatase (ALP). Type of data set: biochemical. To be noted: ATP 200 μM, ALP 0.5 U/mL, DEA buffer 10 mM pH 9.8, 37 °C, bioluminescence, blank control 13%.
For a further data set, the system named is T24 cells. Nature of the data set: CCK-8 cytotoxicity assay, T24 cells. The data set is classed as cell-based, human. The following applies: 48 h; for IC50: human. (Formazan colour is commonly taken as a measure of viable cells.)
A further data set concerns EJ cells. The data set is classed as cell-based. To be noted: human, 48 h.
A further data set relates to RT-112 cells. Type of data set: cell-based. To be noted: human, 48 h.
A further data set has as its system SV-HUC-1 cells. Nature of the data set: Toxicity assay towards SV-HUC-1 normal bladder cells. The data set is classed as cell-based. The following applies: viability, different concentrations, 48 h.
The subject of data set [2] is T24 xenograft mice. In words: In vivo / ex vivo dose-dependent fluorescence imaging in T24 xenograft mice. The following applies: i.v., 500 μM or 250 μM in 200 μL PBS, 1-96 hours, N = 3.
The subject of data set [3] is T24 xenograft mice. Nature of the data set: In vivo antitumor evaluation, T24 subcutaneous xenograft model. The following applies: i.v. 500 μM in 200 μL PBS six times. The protocol:
3 mm at 8 h post-treatment. The fragments were then fixed with 2.5% glutaraldehyde at 4°C overnight and treated with 1% […] for 2 h after being rinsed thrice with PBS.
Subsequently, graded concentrations of alcohol solutions (50, 70, 80, 90, 100, 100 and 100%) were utilized for graded dehydration (with 10 minutes each). Next, tumor fragments were exposed to a mixture of alcohol/acetone (1:1) for 10 min, a mixture of acetone/EPON-812 (1:1) for 1 h and a mixture of acetone/EPON-812 (1:2) for 1 h. Pure EPON-812 was then utilized to further infiltrate the tumor fragments overnight at 4°C, after which it was cured at 37, 45 and 60°C for 24 h respectively. Finally, the morphology of NLS-FF-T in the tumor slice was observed by bio-Transmission Electron Microscope (bio-TEM) after being stained with 2% uranyl acetate and 3% lead citrate.
To further verify the therapeutic potency of the IAS system, a T24 xenograft mouse […]
When the average tumor volume reached 100-200 mm3, the T24 tumor-bearing mice were […]
The individual tumor growth and body weight were measured every 2 d for analysis, with tumor volume calculated as follows: tumor width2 × tumor length × 0.5. […]
At the end of the treatment period, T24 tumor tissues were collected and washed thrice with PBS. […] The ATP levels were then measured according to the manufacturer’s instructions using an ATP Content Assay Kit. […]

A further data set concerns healthy BALB/c nude mice. In words: In vivo toxicology evaluation in healthy mice. To be noted: N = 4.
Data set [4] concerns T24 xenograft mice (incomplete tumor resection). To be noted: after intravenous administration, tumor-recurrence model.
Protocol: In vivo antitumor evaluation of IAS system in regrowth of residual tumor model
To establish the T24 xenograft mouse model, BALB/c nude mice (approximately 6-8
weeks, weighing 16-18 g) were subcutaneously injected with T24 cells (5 × 106) suspended
in 100 μL Matrigel. The mice were randomly divided into five groups, with six mice in each
group. Both body weight and tumor volume were measured for analysis. At 21 d after
inoculation, tumor tissues of approximately 300-500 mm3 were resected, leaving a residual
tumor of approximately 30-50 mm3. After that, the T24 xenograft mice were intravenously
administered with PBS, NLS-FF, FF-T, NLS-T and NLS-FF-T (500 μM in 200 μL PBS)
every two days on day 21, 23, 25, 27, 29 and 31. The tumor volume was calculated using the formula: tumor width2 × tumor length × 0.5.
For two-group comparisons, statistical analysis was performed using one-way ANOVA
followed by post hoc Tukey's test. The GraphPad Prism software 8.0 was used for all
The mark [5] stands for this setting: i.v. 1000, 500 or 250 μM in 200 μL PBS six times.

The record followed here is publication PMC10903983, “Inducing mitochondriopathy-like damages by transformable nucleopeptide nanoparticles for targeted therapy of bladder cancer” (National Science Review, 2024).

Each structure is given as a SMILES string. Non-standard residues stand in square brackets, D forms with d. Residues, ends and D or L forms follow the SMILES beside them. *: point of attachment. Coumarin3carbonyl(7-OH) = O=C(c1cc2ccc(O)cc2oc1=O)*; Acetyl(thymin-1-yl) = Cc1cn(CC(=O)*)c(=O)[nH]c1=O; PEG8 = NCCOCCOCCOCCOCCOCCOCCOCCOCCC(=O)O

A word on the IC50: it is the concentration that inhibits the measured activity by half. Read a high IC50 as weaker potency. For `Cc1cn(CC(=O)NCCCC[C@H](NC(=O)c2cc3ccc(O)cc3oc2=O)C(=O)N[C@@H](CC(C)C)C(=O)N[C@H](C(=O)N[C@@H](Cc2ccccc2)C(=O)N[C@@H](Cc2ccccc2)C(=O)NCCOCCOCCOCCOCCOCCOCCOCCOCCC(=O)N[C@H](C(=O)N[C@@H](CCCCN)C(=O)N[C@@H](CCCNC(=N)N)C(=O)N[C@@H](CCCCN)C(=O)N[C@@H](CCCCN)C(=O)N[C@@H](CCCCN)C(=O)N2CCC[C@H]2C(=O)O)C(C)C)C(C)C)c(=O)[nH]c1=O` [NLS-FF-T, HCA-K(T)LVFF-PEG-VKRKKKP] ({Coumarin3carbonyl(7-OH)}-K(Acetyl(thymin-1-yl))LVFF[PEG8]VKRKKKP-OH), the “ATP remaining after ALP catalytic hydrolysis” value in data set [1] (NLS-FF-T nanofibers) is recorded as 61%; in [1] (NLS-FF-T nanoparticle group), 27%. For the same molecule, the IC50 with T24 cells turned out to be 34 µM; in the data set with EJ cells, 32 µM; in the data set with RT-112 cells it was 43.3 µM. In the data set on T24 cells (viability, different concentrations), the “cytotoxicity against T24 cells compared with T-ATP” value was “significantly higher cytotoxicity against T24 cells than that of T-ATP”. Besides, the “toxicity towards T24 tumor cells versus SV-HUC-1 normal bladder cells” value with SV-HUC-1 cells is “enhanced toxicity towards tumor cells (T24) than that of normal cells (SV-HUC-1)”. The “tumor accumulation and retention (in vivo fluorescence imaging)” value with T24 xenograft mice [2] is “dose-dependent tumor accumulation and long-time tumor retention”. The body weight result in the data set on T24 xenograft mice [3] is reported as “no substantial loss of body weight”. Besides, the “histology (H&E) of liver and kidney” value with healthy BALB/c nude mice (i.v. 1000, 500 or 250 μM in 200 μL PBS six times at 2-day intervals) is listed as “no signs of histological deterioration or damage”. In addition, the “blood biochemistry (ALT, AST, ALP, BUN, CRE)” value in the data set on healthy BALB/c nude mice (setting [5]) is recorded as “typical ranges”. Also, the “routine blood examination (RBC, WBC, PLT, HGB, NEUT) versus PBS” value with healthy BALB/c nude mice (setting [5]) is “no differences”. Besides, the body weights entry in [4] was “no impact”.

`Cc1cn(CC(=O)NCCCC[C@H](NC(=O)c2cc3ccc(O)cc3oc2=O)C(=O)N[C@@H](CC(C)C)C(=O)N[C@H](C(=O)NCCOCCOCCOCCOCCOCCOCCOCCOCCC(=O)N[C@H](C(=O)N[C@@H](CCCCN)C(=O)N[C@@H](CCCNC(=N)N)C(=O)N[C@@H](CCCCN)C(=O)N[C@@H](CCCCN)C(=O)N[C@@H](CCCCN)C(=O)N2CCC[C@H]2C(=O)O)C(C)C)C(C)C)c(=O)[nH]c1=O` [NLS-T, HCA-K(T)LV-PEG-VKRKKKP] ({Coumarin3carbonyl(7-OH)}-K(Acetyl(thymin-1-yl))LV[PEG8]VKRKKKP-OH): the IC50 in the data set on T24 cells was 119 µM; in the data set on EJ cells it was 122 µM; in the data set on RT-112 cells it was 107 µM.

In the case of `CC(C)C[C@H](NC(=O)[C@H](CCCCN)NC(=O)c1cc2ccc(O)cc2oc1=O)C(=O)N[C@H](C(=O)N[C@@H](Cc1ccccc1)C(=O)N[C@@H](Cc1ccccc1)C(=O)NCCOCCOCCOCCOCCOCCOCCOCCOCCC(=O)N[C@H](C(=O)N[C@@H](CCCCN)C(=O)N[C@@H](CCCNC(=N)N)C(=O)N[C@@H](CCCCN)C(=O)N[C@@H](CCCCN)C(=O)N[C@@H](CCCCN)C(=O)N1CCC[C@H]1C(=O)O)C(C)C)C(C)C` [NLS-FF, HCA-KLVFF-PEG-VKRKKKP] ({Coumarin3carbonyl(7-OH)}-KLVFF[PEG8]VKRKKKP-OH), the IC50 with T24 cells turned out to be 532 µM; with EJ cells it was 278 µM; with RT-112 cells, 376 µM.

As for `Cc1cn(CC(=O)NCCCC[C@H](NC(=O)c2cc3ccc(O)cc3oc2=O)C(=O)N[C@@H](CC(C)C)C(=O)N[C@H](C(=O)N[C@@H](Cc2ccccc2)C(=O)N[C@@H](Cc2ccccc2)C(=O)NCCOCCOCCOCCOCCOCCOCCOCCOCCC(=O)NCCOCCOCCOCCOCCOCCOCCOCCOCCC(=O)O)C(C)C)c(=O)[nH]c1=O` [FF-T, HCA-K(T)LVFF-PEG2] ({Coumarin3carbonyl(7-OH)}-K(Acetyl(thymin-1-yl))LVFF[PEG8][PEG8]-OH), the IC50 was found to be 408 µM in the data set with T24 cells, 181 µM in the data set with EJ cells and 356 µM with RT-112 cells.
